# Laboratory results reported in ChEMBL document CHEMBL1136214, “Indole-based heterocyclic inhibitors of p38alpha MAP kinase: designing a conformationally restricted analogue” (Bioorg Med Chem Lett, 2003).
# Molecular target: Mitogen-activated protein kinase 14 (Homo sapiens, UniProt Q16539)
# Experiment: Inhibition of Mitogen-activated protein kinase p38 alpha
# Sequence of Mitogen-activated protein kinase 14 (Q16539 whole entry): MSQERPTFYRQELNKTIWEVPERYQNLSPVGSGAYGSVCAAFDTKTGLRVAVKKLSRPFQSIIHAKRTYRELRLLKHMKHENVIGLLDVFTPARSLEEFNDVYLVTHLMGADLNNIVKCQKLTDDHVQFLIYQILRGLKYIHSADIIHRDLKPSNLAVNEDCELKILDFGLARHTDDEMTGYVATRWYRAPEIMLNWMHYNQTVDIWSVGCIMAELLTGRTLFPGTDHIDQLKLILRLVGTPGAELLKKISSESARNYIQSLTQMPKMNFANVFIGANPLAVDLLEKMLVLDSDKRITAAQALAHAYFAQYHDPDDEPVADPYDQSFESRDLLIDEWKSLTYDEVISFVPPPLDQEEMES
row,SMILES,IC50 [nM]
1,O=C(c1cccc2cc[nH]c12)N1CCN(Cc2ccccc2)CC1,> 30000
2,COc1cc2[nH]ccc2cc1C(=O)N1C[C@H](C)N(Cc2ccccc2)C[C@H]1C,20
3,C[C@@H]1CN(Cc2ccccc2)[C@@H](C)CN1C(=O)c1ccc2[nH]ccc2c1,1300
4,COc1cc2[nH]ccc2cc1C(=O)N1C[C@@H](C)N(Cc2ccccc2)C[C@@H]1C,1650
5,COc1cc2[nH]ccc2cc1C(=O)N1CCN(Cc2ccccc2)CC1,950
6,COc1cc2[nH]ccc2cc1C(=O)N1C[C@H](C)N(Cc2ccccc2)C[C@H]1C (racemic),70
